Source: patent publication US7858738B2, “Synthetic human peptides and pharmaceutical compositions comprising them for the treatment of systemic lupus erythematosus” (Yeda Research and Development Co., Ltd., priority 2001, dated 2010)

How the values were obtained:
MMP-3 = MMP-3 levels in sera of (NZB×NZW)F1 mice (Western blot); format: in vivo; details: 300 μg s.c. once a week from age 7 months; sera after 5 injections; FIG. 23
Experimental: (§1) Induction and treatment of experimental SLE. In order to induce experimental SLE, BALB/c mice were immunized with 1-2 μg of the human mAb 16/6Id and boosted 3 weeks later. For the prevention of experimental SLE, mice were given hCDR1 or hCDR3 (mCDR1 or revmCDR1 as control peptide in Example 12) intravenously (i.v.) or s.c. concomitant with the immunization, and were injected weekly thereafter for 5 weeks. Treatment of an established disease started three and a half months following disease induction with the 16/6Id, when clinical manifestations were already observed. In Example 12, mice received 10 weekly injections (i.v. or s.c.) of mCDR1 or revmCDR1 at a dose of 100 μg/mouse. Prevention and treatment of SLE-like disease in (NZB×NZW)F1 mice with the hCDR1 or mCDR1 peptide. For prevention of SLE, mice at the age of 2 months, before disease manifestations are observed, were injected s.c. with hCDR1 (or mCDR1 in Example 12, 250 μg/mouse) once a week for 10 weeks. To treat an established disease, mice at the age of 5-7 months were injected with hCDR1 (in Example 12, mCDR1 s.c., 250 μg/mouse) once a week for 10 weeks. Proliferative Responses. PBL were isolated from heparinized venous blood by Ficoll-Hypaque (Pharmacia) density-gradient centrifugation. […] Results are expressed as the mean thymidine incorporation in counts per minute (CPM) of triplicate culture±SD, or as stimulation index (S.I.; the ratio of mean CPM at the optimal concentration of the human 16/6Id to the mean CPM in the presence of medium alone). […] TGF-β was determined by an ELISA. […] The substrate solution used was TMB color Reagent (Helix Diagnostics, West Sacramento, Calif.), and enzyme activity was evaluated by using 570- and 630-nm filters. […] Proteinuria was measured semiquantitatively by using Combistix kit (Ames Division, Bayer Diagnostics, Newbury, U.K.). White blood cells (WBC, for leukopenia) were counted after a 10-fold dilution of heparinized blood in distilled water containing 1% acetic acid (vol/vol). […]

(NZB×NZW)F1 mice = test: Transfer of splenocytes of peptide-treated mice into (NZB×NZW)F1 mice with full-blown disease; format: in vivo
Description: It was of importance to investigate whether the beneficial effects of treatment with hCDR1, that are manifested by the down-regulation of disease manifestations, can be transferred by spleen cells of treated mice. To this end, we have performed an experiment in which 8-month old (NZB×NZW)F1 mice, that suffer already from the full-blown lupus-like disease, were divided into 2 groups. Group 1 was not treated and mice of group 2 were transferred with 20×10^6 spleen cells of 3-month old (NZB×NZW)F1 mice that were injected 3 times (s.c., every other day) with 300 μg/mouse of hCDR1. All splenocytes were injected intraperitoneally. Mice were tested for anti-dsDNA autoantibody production, disease manifestations, and were sacrificed 4 weeks after cell transfer.
The experiment was repeated a few more times using revhCDR1 as control.

PBL of SLE patients = test: TGF-β secretion by PBL of SLE patients stimulated with the human 16/6Id mAb (ELISA); format: cell-based; details: for secretion of TGF-β by PBL: one representative SLE patient, FIG. 9; for Maximum Up-regulation % (TGF-β secretion): percent secretion above that with 16/6Id alone (mean 636 ± 25 pg/ml = 100%); for Up-regulation of TGF-β %: share of 19 SLE patients with up-regulation
Experimental: For this purpose, supernatants were removed from cultures of PBL of various SLE patients following 48 hours incubation with the human 16/6Id mAb in the absence or presence of the peptides hCDR1 or hCDR3. TGF-β was determined by ELISA according to the manufacturer's instructions. Briefly, Maxisorb plates (Nunc) were coated with recombinant human TGFβsRII/Fc chimera (R&D Systems) diluted in PBS (100 ng/ml). After blocking, cell supernatants were added. After 18 hours incubation the detecting biotinylated anti-human TGF-β antibody (R&D Systems) was added. The substrate solution used was the TMB Colour Reagent (Helix Diagnostics) and enzyme activity was evaluated by the MRX ELISA reader using the 570 nm and 630 nm filters.

[1] = tested on: splenocytes of (NZB×NZW)F1 mice; test: Cytokine pattern in supernatants of splenocyte cultures of treated (NZB×NZW)F1 mice (ELISA); format: in vivo; details: end of treatment (10 weekly s.c. injections, 300 μg)
Experimental: as §1

| Sequence | levels of MMP-3 in pooled sera (MMP-3) | Proteinuria g/L ± SEM ((NZB×NZW)F1 mice; Table 13, recipients of 20 × 10^6 spleen cells from mice treated 3 times s.c. with 300 μg/mouse, non-treated 15.07 ± 4.92) [g/L] | I.C.D ± SEM ((NZB×NZW)F1 mice; Table 13, recipients of 20 × 10^6 spleen cells from treated mice, non-treated 2.25 ± 0.47) | I.C.D ± SEM ((NZB×NZW)F1 mice; Table 14 (repeat experiment), recipients of 20 × 10^6 spleen cells from treated mice, non-treated 2.3 ± 0.26) | Proteinuria g/L ± SEM ((NZB×NZW)F1 mice; Table 14 (repeat experiment), recipients of 20 × 10^6 spleen cells from treated mice, non-treated 10.9 ± 3.05) [g/L] | levels of anti-DNA antibodies ((NZB×NZW)F1 mice; transfer of cells of treated mice, 4 weeks after cell transfer) | secretion of TGF-β by PBL (PBL of SLE patients) | Maximum Up-regulation % (TGF-β secretion) (PBL of SLE patients) [%] | Up-regulation of TGF-β % (PBL of SLE patients) | INF-γ in supernatants of Con A-stimulated splenocytes ([1]; FIG. 13A) | TGF-β in supernatants of non-stimulated splenocytes ([1]; FIG. 13C) | IL-10 in supernatants of Con A-stimulated splenocytes ([1]; to a lesser extent, FIG. 13B) |
| --- | --- | --- | --- | --- | --- | --- | --- | --- | --- | --- | --- | --- |
| GYYWSWIRQPPGKGEEWIG (Human) [hCDR1, 19-mer peptide based on the CDR1 of the heavy chain of the human 16/6Id mAb] | down regulated | 0.97 ± 0.67 | 0.75 ± 0.47 | 1.33 ± 0.35 | 2.91 ± 1.6 | mild reduction | significant up-regulation | 305 ± 221 | 100 (19/19) % | down-regulated | increased secretion | down-regulated |
| YYCARGLLRGGWNDVDYYGMDV (Human) [hCDR3, peptide based on the CDR3 of the heavy chain of the human 16/6Id mAb] | – | – | – | – | – | – | significant up-regulation | 338 ± 242 | 100 (19/19) % | – | – | – |
